Measured values: patent US7476522B2, “Method for producing γ-linolenic acids from a ciliate culture by adding suitable precursor molecules to said culture medium” (Nutrinova Nutrition Specialties & Food Ingredients GmbH, priority 2001, dated 2009)
Read-outs that look alike come from different tables or passages of the source.

Experiments:
[1] = system: Tetrahymena thermophila B1868VII
Procedure: (§1) Fermentations were carried out in a 1 l fermenter (700 ml working volume), 5 l fermenter (3 l working volume) and a 13 l fermenter (10 l working volume). The fermenters were equipped as standard with a pH electrode, a pO2 electrode, an aeration ring, a stirrer shaft with disk vein agitator, feed line for acid/alkali, feed line for feeding, inoculation fittings and sampling.
(§2) Fermentation conditions were as specified in Table 2.
(§3) To determine the biomass dry matter, 5 ml of cell culture were centrifuged for 10 min at 3400 g and 4° C., the supernatant was decanted and the cell pellet was frozen at −80° C. The frozen biomass was lyophilized and the weight of the biomass dry matter was determined.
(§4) The cell density was determined using the CASY 1 Cell Counter+Analyser System, Model TTC, Schärfe System. For measurement, the cells were diluted (1:500) in a weak CASY electrolyte solution and transported through a capillary of 150 μm diameter. The cells in a range of 15-50 μm particle size were counted.
(§5) The nonpolar lipid constituents (neutral lipids) were extracted from the biomass dry matter with n-hexane. For one batch, approximately 500 mg of biomass dry matter were stirred in 5 ml of n-hexane for 1 h at 60° C., then centrifuged for 2 min at 2700 g and the supernatant was purified by filtering off suspended matter. For the filtration, a Pasteur Pipette filled with cotton wool was used, having a fill height of approximately 1 cm. The cell residue for the first extraction was extracted a further time with 5 ml of solvent, the biomass was centrifuged off and the supernatant filtered. The purified organic phases of the two extractions were combined, the solvent was completely evaporated on a rotary evaporator and the amount of extracted lipid was determined by weighing.
(§6) The fatty acid spectrum was determined by means of a gas chromatograph (HP GC 6890) equipped with a flame ionization detector (Hewlett-Packard Company, Wilmington, USA). The column used was an FFAP (Free Fatty Acid Phase) Permbond (Macherey & Nagel GmbH, Düren). The fatty acids were identified by comparison with the retention times of fatty acid methyl ester standards. On the basis of the known concentration of the standard, the concentration of fatty acids in the samples could be determined.
(§7) 30-70 mg of the lyophilized biomass dry matter (see determination of biomass) were weighed out and were admixed with 1 ml of 20% strength methanolic HCl and 1 ml of methanolic standard solution (1 mg/ml). To liberate the fatty acids and transesterify them into fatty acid methyl esters, the samples were stirred in a closed test tube for two hours at 60° C. in a water bath and cooled to room temperature. To neutralize the sample, 1 ml of aqueous saturated sodium hydrogen carbonate solution was then added and the sample was mixed carefully. The fatty acid methyl esters were extracted by adding n-hexane. The batch was then mixed vigorously and phase separation was achieved by centrifuging for 2 min at 4300 rpm. About ⅔ of the upper organic phase was taken off and 1 μl of the sample was injected onto the GC column and analyzed (see also Table 5).
(§8) The fermentations were carried out in a 1-l fermenter containing 700 ml of MM-Var medium.

[2] = system: Tetrahymena thermophila B1868VII; conditions: for lipid content versus standard fermentation: NaAc feed
Procedure: as §1, §2, §3, §4, §5, §6, §7, §8

Tetrahymena pyriformis = conditions: cited from earlier work
Tetrahymena = conditions: supplying acetate; cited from earlier work
[3] = acetate added before inoculation and also during culture

CC(=O)[O-].[Na+] [NaAc, sodium acetate]
cell growth (cell density and biomass dry matter) [1]: adversely affected cell growth | formation of GLA product by volume [1]: decreased | GLA content of the biomass dry matter ([1]; 0.5 and 1.0 g/l NaAc in basal medium): not altered | NL/BDM ([1]; MM-VAR containing 0.5 g/l of NaAc, 46 h): 8 %(w/w) | NL/BDM ([1]; MM-VAR containing 0.5 g/l of NaAc, 70 h): 17 %(w/w) | NL/BDM ([1]; MM-VAR containing 1.0 g/l of NaAc, 46 h): 11 %(w/w) | NL/BDM ([1]; MM-VAR containing 1.0 g/l of NaAc, 70 h): 17 %(w/w) | GLA content in the neutral lipid versus standard fermentation ([1]; NaAc added to MM-Var basal medium): only slight differences | NL content ([1]; NaAc added to MM-Var basal medium, after 70 h, standard […]%): 17 % (w/w) | lipid content versus standard fermentation ([1]; NaAc in basal medium, culture time 46 h): no significant difference | GLA yield overall [1, 3]: impairment | fatty acid spectrum and GLA content of the biomass [1, 3]: no marked change | growth [1, 3]: poorer growth | cell growth (cell density and BDM) [2]: adverse effect on the cell growth | formation of GLA product by volume [2]: impaired | NL/BDM ([2]; Feed 0.02 g/l of NaAc, 46 h): 8 %(w/w) | NL/BDM ([2]; Feed 0.02 g/l of NaAc, 70 h): 12 %(w/w) | NL/BDM ([2]; Feed 0.4 g/l of NaAc, 46 h): 9 %(w/w) | NL/BDM ([2]; Feed 0.4 g/l of NaAc, 70 h): 13 %(w/w) | GLA content of the biomass dry matter ([2]; NaAc fed during culturing): unchanged | lipid content versus standard fermentation ([2]; after 70 h): no significant increase | lipid content versus standard fermentation ([2]; culture time 46 h): no difference | cell count (Tetrahymena pyriformis; 0.1% acetate added to basal medium which does not contain glucose, […]10^5 without): 1.6×10^5 cells per ml | cell count (Tetrahymena pyriformis; acetate, basal medium which contains glucose, 1.85×10^5 without): 1.9×10^5 cells per ml | composition of the fatty acids (Tetrahymena): not changed
